In publication PMC7215574, “Development of Thiazolidinones as Fungal Carbonic Anhydrase Inhibitors” (International Journal of Molecular Sciences, 2020):
Values after ≈ are worked out from the molar mass of the structure shown. Read-outs that look alike come from different tables or passages of the source.

Tests used:
CgNce103 = target: T1, CgNce103 (Nakaseomyces glabratus, UniProt Q6FTL6); assay: stopped-flow CO2 hydrase assay; assay type: biochemical
T1 construct: gene NCE103; recombinant, obtained in-house as previously reported; beta-class zinc enzyme
T1 sequence (Q6FTL6 1-219): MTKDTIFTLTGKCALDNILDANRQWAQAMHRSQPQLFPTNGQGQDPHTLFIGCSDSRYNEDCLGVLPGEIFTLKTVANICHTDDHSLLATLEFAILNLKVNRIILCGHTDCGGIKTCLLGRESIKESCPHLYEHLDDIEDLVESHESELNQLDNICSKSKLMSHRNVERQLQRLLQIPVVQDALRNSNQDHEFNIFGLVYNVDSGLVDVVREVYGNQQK

hCA I = target: T2, hCA I (Homo sapiens, UniProt P00915); assay: stopped-flow CO2 hydrase assay; assay type: biochemical
T2 construct: gene CA1; recombinant, obtained in-house as previously reported
From the text: stopped-flow CO2 hydrase assay on hCA I

[1] = stopped-flow CO2 hydrase assay; assay type: biochemical, Homo sapiens; conditions: read-out: hCA I
C. glabrata 3 strains = tested on: T3, C. glabrata 3 strains; assay: microbe, parasite or virus in culture; set-up: species or system clinical Candida isolates; broth microdilution antifungal MIC, visual growth inhibition, CLSI; conditions: Nakaseomyces glabratus, 24 h, read-out: Tested Fungi (MIC Values μg/mL) / C. glabrata 3 strains
T3 construct: 3 clinical isolates
Protocol: (§1) The in vitro antifungal activities were determined by the broth microdilution method with sabouraud dextrose broth (BBL Microbiology Systems, Cockeysville, MD, USA), as recommended by the by the CLSI [43]. Ninety-six-well polystyrene microtitre plates containing serial dilutions of each compound were inoculated with each microorganism to yield the appropriate density (1–5 × 10^3 cells/mL) in a 100-μL final volume. Each plate included (i) fungi without the addition of the compound, (ii) just the medium, and (iii) just the compound. Topical and systemic antifungal reference drugs, clotrimazole and fluconazole, were inserted in the experiment. The plates were incubated for 24 h at 35 °C. […] Three independent experiments were performed in triplicate. The antimicrobial activity of these thiazolidinones was evaluated versus 24 clinical Gram-positive (S. aureus and S. epidermidis) and Gram-negative (E. coli and Enterobacter spp.) microorganisms. The antifungal activity of these derivatives was then tested versus 16 clinical fungal isolates belonging to the most relevant Candida spp. (C. albicans, C. tropicalis, C. parapsilosis, C. sakè, and C. glabrata). Prior to testing, each isolate was cultured on a selective medium to ensure purity and optimal growth, as previously reported. The isolates were routinely identified by the morphological aspects of colonies and by biochemical identification. The used clinical isolates were collected from specimens of patients at the ‘Azienda Policlinico Umberto I’ (Sapienza University of Rome) and were obtained from hematology/oncology and surgery departments, which also included an intensive care unit. In particular, the samples were isolated from the upper and lower respiratory tract, blood, and indwelling venous catheters; the isolates were identified by conventional methodologies. Participating subjects gave their written informed consent for this study.

[2] = tested on: T4, Candida sake C. sakè 3 strains; assay: microbe, parasite or virus in culture; set-up: species or system clinical Candida isolates; broth microdilution antifungal MIC, visual growth inhibition, CLSI; conditions: Fermentozyma sake, 24 h; read-out: Tested Fungi (MIC Values μg/mL) / C. sakè 3 strains
T4 construct: 3 clinical isolates
Protocol: as §1

C. albicans 5 strains = tested on: T5, C. albicans 5 strains; assay: microbe, parasite or virus in culture; set-up: species or system clinical Candida isolates; broth microdilution antifungal MIC, visual growth inhibition, CLSI; conditions: Candida albicans, 24 h, read-out: Tested Fungi (MIC Values μg/mL) / C. albicans 5 strains
T5 construct: 5 clinical isolates
Protocol: as §1

[3] = tested on: T6, C. parapsilosis 2 strains; assay: microbe, parasite or virus in culture; set-up: species or system clinical Candida isolates; CLSI broth microdilution MIC, Sabouraud dextrose broth, 35 °C, visual complete growth inhibition; conditions: Lodderomyces parapsilosis, 24 h, read-out: Tested Fungi (MIC Values μg/mL) / C. parapsilosis 2 strains
T6 construct: 2 clinical isolates
Protocol: as §1

C. tropicalis 3 strains [4] = tested on: T7, C. tropicalis 3 strains; assay: microbe, parasite or virus in culture; set-up: species or system clinical Candida isolates; CLSI broth microdilution MIC, Sabouraud dextrose broth, 35 °C, visual complete growth inhibition; conditions: Candida tropicalis, 24 h, read-out: Tested Fungi (MIC Values μg/mL) / C. tropicalis 3 strains
T7 construct: 3 clinical isolates
Protocol: as §1

hCA II = target: T8, hCA II (Homo sapiens, UniProt P00918); assay: stopped-flow CO2 hydrase assay; assay type: biochemical
T8 construct: gene CA2; recombinant, obtained in-house as previously reported
From the text: stopped-flow CO2 hydrase assay on hCA II

C. tropicalis 3 strains [5] = tested on: T7, C. tropicalis 3 strains; assay: microbe, parasite or virus in culture; set-up: species or system clinical Candida isolates; broth microdilution antifungal MIC, visual growth inhibition, CLSI; conditions: Candida tropicalis, 24 h, read-out: Tested Fungi (MIC Values μg/mL) / C. tropicalis 3 strains
Protocol: as §1

[6] = tested on: T4, Candida sake C. sakè 3 strains; assay: microbe, parasite or virus in culture; set-up: species or system clinical Candida isolates; CLSI broth microdilution MIC, Sabouraud dextrose broth, 35 °C, visual complete growth inhibition; conditions: Fermentozyma sake, 24 h; read-out: Tested Fungi (MIC Values μg/mL) / C. sakè 3 strains
Protocol: as §1

T2 sequence (P00915 2-261): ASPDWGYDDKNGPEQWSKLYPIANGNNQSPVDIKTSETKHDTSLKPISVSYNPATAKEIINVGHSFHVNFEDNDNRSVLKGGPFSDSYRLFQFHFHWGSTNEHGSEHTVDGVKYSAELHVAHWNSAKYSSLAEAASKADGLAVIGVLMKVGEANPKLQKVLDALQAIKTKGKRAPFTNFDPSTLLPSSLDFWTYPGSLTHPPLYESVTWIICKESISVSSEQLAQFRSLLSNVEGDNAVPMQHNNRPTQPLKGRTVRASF

Compound	Ki (CgNce103) [nM]	Ki (hCA I) [µM]	Ki [1] [µM]	MIC (C. glabrata 3 strains) [µg/mL]	MIC [2] [µg/mL]	MIC (C. albicans 5 strains) [µg/mL]	MIC [3] [µg/mL]	MIC (C. tropicalis 3 strains [4]) [µg/mL]	Ki (hCA II) [µM]	MIC (C. tropicalis 3 strains [5]) [µg/mL]	MIC [6] [µg/mL]
O=C(N/N=C1\SCC(=O)N1c1ccccc1Cl)C(O)c1ccccc1 (centres unmarked) [3d]	320	> 100	> 100	8 to 32 (≈ 21.3 to 85.1 µM)	8 to 32 (≈ 21.3 to 85.1 µM)	8 to 32 (≈ 21.3 to 85.1 µM)	32 (≈ 85.1 µM)	32 (≈ 85.1 µM)			
O=C(N/N=C1\SCC(=O)N1c1cccc(Cl)c1)C(O)c1ccccc1 (centres unmarked) [3e]	430	> 100		8 to 32 (≈ 21.3 to 85.1 µM)	8 to 32 (≈ 21.3 to 85.1 µM)	8 to 32 (≈ 21.3 to 85.1 µM)	32 (≈ 85.1 µM)	32 (≈ 85.1 µM)	50.3		
O=C(N/N=C1\SCC(=O)N1c1ccccc1Br)C(O)c1ccccc1 (centres unmarked) [3g]	10200	> 100	> 100	8 to 32 (≈ 19 to 76.1 µM)		8 to 16 (≈ 19 to 38.1 µM)	8 (≈ 19 µM)			8 to 32 (≈ 19 to 76.1 µM)	16 (≈ 38.1 µM)
Cc1ccccc1N1C(=O)CS/C1=N\NC(=O)C(O)c1ccccc1 (centres unmarked) [3j]				8 to 32 (≈ 22.5 to 90 µM)	8 to 32 (≈ 22.5 to 90 µM)	8 to 16 (≈ 22.5 to 45 µM)	16 (≈ 45 µM)	32 (≈ 90 µM)			
Cc1cccc(N2C(=O)CS/C2=N\NC(=O)C(O)c2ccccc2)c1 (centres unmarked) [3k]	410	> 100		8 to 32 (≈ 22.5 to 90 µM)	8 to 32 (≈ 22.5 to 90 µM)	8 to 32 (≈ 22.5 to 90 µM)	16 (≈ 45 µM)	32 (≈ 90 µM)	79.3		
Cc1ccc(N2C(=O)CS/C2=N\NC(=O)C(O)c2ccccc2)cc1 (centres unmarked) [3l]	6300	> 100	> 100	8 to 32 (≈ 22.5 to 90 µM)	8 to 32 (≈ 22.5 to 90 µM)	8 to 32 (≈ 22.5 to 90 µM)	32 (≈ 90 µM)	32 (≈ 90 µM)			
COc1ccc(N2C(=O)CS/C2=N\NC(=O)C(O)c2ccccc2)cc1 (centres unmarked) [3m]	390	> 100	> 100	8 to 32 (≈ 21.5 to 86.2 µM)	8 to 32 (≈ 21.5 to 86.2 µM)	8 to 32 (≈ 21.5 to 86.2 µM)	32 (≈ 86.2 µM)	32 (≈ 86.2 µM)			
O=C(N/N=C1\SCC(=O)N1c1ccc([N+](=O)[O-])cc1)C(O)c1ccccc1 (centres unmarked) [3n]				8 to 32 (≈ 20.7 to 82.8 µM)	8 to 32 (≈ 20.7 to 82.8 µM)	8 to 32 (≈ 20.7 to 82.8 µM)	32 (≈ 82.8 µM)	32 (≈ 82.8 µM)			
O=C(N/N=C1\SCC(=O)N1c1cccc(C(F)(F)F)c1)C(O)c1ccccc1 (centres unmarked) [3o]	120	> 100		4 to 8 (≈ 9.77 to 19.5 µM)	4 to 8 (≈ 9.77 to 19.5 µM)	16 to 32 (≈ 39.1 to 78.2 µM)	32 (≈ 78.2 µM)	32 (≈ 78.2 µM)	82.8		
CC1S/C(=N\NC(=O)C(O)c2ccccc2)N(c2cccc(F)c2)C1=O (centres unmarked) [4a]	110	> 100	> 100	8 to 32 (≈ 21.4 to 85.7 µM)	4 to 8 (≈ 10.7 to 21.4 µM)	16 to 32 (≈ 42.8 to 85.7 µM)	8 (≈ 21.4 µM)			8 to 32 (≈ 21.4 to 85.7 µM)	
CC1S/C(=N\NC(=O)C(O)c2ccccc2)N(c2ccc(F)cc2)C1=O (centres unmarked) [4b]	480	> 100	> 100	8 to 32 (≈ 21.4 to 85.7 µM)	4 to 8 (≈ 10.7 to 21.4 µM)	16 to 32 (≈ 42.8 to 85.7 µM)	8 (≈ 21.4 µM)			8 to 32 (≈ 21.4 to 85.7 µM)	
CC1S/C(=N\NC(=O)C(O)c2ccccc2)N(c2cccc(Cl)c2)C1=O (centres unmarked) [4c]	120	> 100	> 100	8 to 32 (≈ 20.5 to 82.1 µM)	4 to 8 (≈ 10.3 to 20.5 µM)	16 to 32 (≈ 41 to 82.1 µM)	8 (≈ 20.5 µM)			8 to 32 (≈ 20.5 to 82.1 µM)	
CC1S/C(=N\NC(=O)C(O)c2ccccc2)N(c2ccc(Cl)cc2)C1=O (centres unmarked) [4d]				8 to 32 (≈ 20.5 to 82.1 µM)	4 to 8 (≈ 10.3 to 20.5 µM)	4 to 16 (≈ 10.3 to 41 µM)	8 (≈ 20.5 µM)			8 to 32 (≈ 20.5 to 82.1 µM)	
CC1S/C(=N\NC(=O)C(O)c2ccccc2)N(c2ccc(Br)cc2)C1=O (centres unmarked) [4f]	110	> 100	> 100	4 to 8 (≈ 9.21 to 18.4 µM)	4 to 8 (≈ 9.21 to 18.4 µM)	4 to 16 (≈ 9.21 to 36.8 µM)	32 (≈ 73.7 µM)			4 to 8 (≈ 9.21 to 18.4 µM)	
Cc1cccc(N2C(=O)C(C)S/C2=N\NC(=O)C(O)c2ccccc2)c1 (centres unmarked) [4g]	500	> 100	> 100	4 to 8 (≈ 10.8 to 21.7 µM)	4 to 8 (≈ 10.8 to 21.7 µM)	4 to 16 (≈ 10.8 to 43.3 µM)	32 (≈ 86.6 µM)			4 to 8 (≈ 10.8 to 21.7 µM)	
Cc1ccc(N2C(=O)C(C)S/C2=N\NC(=O)C(O)c2ccccc2)cc1 (centres unmarked) [4h]	90	> 100	> 100	8 to 32 (≈ 21.7 to 86.6 µM)	8 to 32 (≈ 21.7 to 86.6 µM)	8 to 32 (≈ 21.7 to 86.6 µM)	32 (≈ 86.6 µM)	16 (≈ 43.3 µM)			
COc1ccc(N2C(=O)C(C)S/C2=N\NC(=O)C(O)c2ccccc2)cc1 (centres unmarked) [4i]	690	> 100	> 100	8 to 32 (≈ 20.8 to 83 µM)	8 to 32 (≈ 20.8 to 83 µM)	8 to 32 (≈ 20.8 to 83 µM)	32 (≈ 83 µM)	16 (≈ 41.5 µM)			
CC1S/C(=N\NC(=O)C(O)c2ccccc2)N(c2ccc([N+](=O)[O-])cc2)C1=O (centres unmarked) [4j]				8 to 32 (≈ 20 to 79.9 µM)	8 to 32 (≈ 20 to 79.9 µM)	8 to 32 (≈ 20 to 79.9 µM)	32 (≈ 79.9 µM)	16 (≈ 40 µM)			
CC1S/C(=N\NC(=O)C(O)c2ccccc2)N(c2cccc(C(F)(F)F)c2)C1=O (centres unmarked) [4k]	110	> 100	> 100	8 to 32 (≈ 18.9 to 75.6 µM)	8 to 32 (≈ 18.9 to 75.6 µM)	32 to 128 (≈ 75.6 to 302 µM)	64 (≈ 151 µM)	128 (≈ 302 µM)			
